Source: patent US10017481B2, “Conformationally constrained, fully synthetic macrocyclic compounds” (POLYPHOR AG, priority 2012, dated 2018)
≈ marks a conversion by molar mass, not a printed value. Like-named read-outs stand apart in the source and are kept apart here. One block for each compound: values may come before it.

What was measured:
[1] = test system: S. pneumoniae DSM 20566 11A11, 3313A6, 704CG4B21, 82BERG72; experiment: Antimicrobial assay, broth microdilution MIC, S. pneumoniae strains; type: cell-based; settings: Streptococcus pneumoniae, DSM20566
Protocol: (§1) The antimicrobial activities of the compounds were determined in 96-well plates (Greiner, polystyrene) by the standard NCCLS broth microdilution method (National Committee for Clinical Laboratory Standards 1993. Methods for dilution antimicrobial susceptibility tests for bacteria that grow aerobically, 3rd ed. Approved standard M7-A6. National Committee for Clinical laboratory standards, Wayne, Pa.) with slight modifications. Inocula of the microorganisms were diluted into Mueller-Hinton II (MH, cation adjusted) broth+0.002% P-80 and compared with a 0.5 McFarland standard to give appr. 10^6 colony forming units (CFU)/mL. Aliquots (50 μl) of inoculate were added to 50 μl of MH broth+0.002% P-80 containing the compounds in serial two-fold dilutions. The following microorganisms were used to determine antibiotic selectivity of the compounds: S. pneumoniae DSM 20566 11A11, 3313A6, 704CG4B21, 82BERG72; S. aureus ATCC 29213, ATCC 25923, DSM 11729, DSM 46320, S. aureus 39. Antimicrobial activities of the compounds were expressed as the minimal inhibitory concentration (MIC) in μg/mL at which no visible growth was observed after 18-20 hours of incubation at 36° C.

[2] = test system: S. aureus ATCC 29213, ATCC 25923, DSM 11729, DSM 46320, S. aureus 39; experiment: Antimicrobial assay, broth microdilution MIC, S. aureus strains; type: cell-based; settings: Staphylococcus aureus
Protocol: as §1

[3] = biological target: T1, Human recombinant cathepsin S (Homo sapiens, UniProt P25774); experiment: Cathepsin S (CatS) enzyme assay; type: biochemical
T1 construct: host or cells: murine myeloma NS0 cells
T1 sequence (P25774 115-331): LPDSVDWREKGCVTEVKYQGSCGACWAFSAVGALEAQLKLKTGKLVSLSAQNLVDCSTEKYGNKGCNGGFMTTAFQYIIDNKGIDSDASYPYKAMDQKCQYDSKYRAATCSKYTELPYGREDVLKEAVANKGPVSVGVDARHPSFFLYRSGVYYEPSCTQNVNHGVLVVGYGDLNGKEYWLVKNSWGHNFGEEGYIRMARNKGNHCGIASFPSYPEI
Protocol: 2. Enzyme Assays for the Peptidase Endothelin Converting Enzyme-1 (ECE-1) and for the Cysteine Protease Cathepsin S (CatS)
The assays were performed according to provider's (Ricerca Biosciences, LLC) protocols which in turn are based on literature procedures (for ECE-1 cf.: O. Valdenaire et al., Eur. J. Biochem. 1999, 264, 341-349; F. D. Russell, A. P. Davenport, Circ. Res. 1999, 84, 891-896; and for CatS: G P Shi et al., J. Biol. Chem. 1992, 267, 7258-62; D Brömme et al., J. Biol. Chem. 1993 268, 4832-4838.).
Human recombinant cathepsin S expressed in a murine myeloma NS0 cells is used. Test compound and/or vehicle is preincubated with 0.1 μg/ml enzyme in modified acetate buffer pH 4.5 for 15 minutes at 25° C. The reaction is initiated by addition of […] Z-Leu-Arg-AMC for another 30 minutes' incubation period. Determination of the amount of AMC formed is read spectrofluorimetrically at 360 nm/465 nm. […]
IC50 values were determined by a non-linear, least squares regression analysis using MathIQ™ (ID Business Solutions Ltd., UK). Inhibition constants K were calculated according to the equation of Cheng and Prusoff (Y. Cheng, W. H. Prusoff, Biochem. Pharmacol. 1973, 22, 3099-3108) using the observed IC50 of the tested compound, the concentration of radioligand employed in the assay, and the historical values for the KD of the ligand. The Hill coefficient (nH), defining the slope of the competitive binding curve, was calculated using MathIQ™.

[4] = Metabolic stability assay, human liver microsomes; type: in vitro ADME; settings: human microsomes, 10 μM, 37° C.; for half-life at 10 μM: both sexes, liver microsomes, 1 mg/ml protein, read-out: Metabolic Stability T ½ [min] hum
Summary of the method: (§2)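 Pooled human (50 donors, mixed gender) or CD-1 mouse microsomes at 1 mg/mL protein, 10 μM compound, 100 mM potassium phosphate with NADPH-regenerating system, 37 °C in duplicate. Samples at 0, 5, 10, 20, 60 min analysed by HPLC/MS/MS; turnover as % of 0-min value and T½ (min) calculated.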

[5] = Plasma stability assay, CD-1 mouse plasma; type: in vitro ADME; settings: for Plasma Stability 240 min mouse/(rat) [% remain.]: CD-1 mouse plasma, 10 μM, 37° C.; for half-life at 10 μM: both sexes, CD-1, mouse, plasma
Summary of the method: (§3)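 Compounds at 10 μM were incubated at 37 °C in triplicate in sodium citrate-stabilized plasma (human, or pooled mixed-gender CD-1 mouse). Samples taken at 0–240 min were acetonitrile-quenched and analyzed by HPLC/MS/MS. Remaining peak area as % of t0 gave endpoint stability (%) and half-life (min).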

[6] = Plasma stability assay, human plasma; type: in vitro ADME; settings: for Plasma Stability 240 min hum [% remain.]: human plasma, 10 μM, 37° C.; for half-life at 10 μM: human, plasma
Summary of the method: as §3

[7] = Metabolic stability assay, CD-1 mouse microsomes; type: in vitro ADME; settings: CD-1 mouse microsomes, 10 μM, 37° C.; for half-life at 10 μM: both sexes, 1 mg/ml protein, read-out: Metabolic Stability T ½ [min] mouse/(rat)
Summary of the method: as §2

[8] = strain DSM 20566 (Table 32.7), read-out: MIC S. pneumoniae DSM 20566
[9] = strain ATCC 25923, read-out: MIC S. aureus ATCC 25923
[10] = strain ATCC 29213, read-out: MIC S. aureus ATCC 29213
[11] = strain DSM 11729, read-out: MIC S. aureus DSM 11729
[12] = strain S. aureus 39, read-out: MIC S. aureus 39
[13] = strain 11A11, read-out: MIC S. pneumoniae 11A11
[14] = strain 82BERG72, read-out: MIC S. pneumoniae 82BERG72
[15] = strain 704CG4B21, read-out: MIC S. pneumoniae 704CG4B21
[16] = strain 3313A6, read-out: MIC S. pneumoniae 3313A6
[17] = strain DSM 20566 (Table 32.8), read-out: MIC S. pneumoniae DSM 20566

MIC [1, 8]: 8 µg/mL (≈ 16.2 µM)
MIC [2, 9]: 16 µg/mL (≈ 32.3 µM)
MIC [2, 10]: 8 to 16 µg/mL (≈ 16.2 to 32.3 µM)
MIC [2, 11]: 8 to 16 µg/mL (≈ 16.2 to 32.3 µM)
MIC [2, 12]: 4 µg/mL (≈ 8.09 µM)
SMILES: CC(C)(C)OC(=O)N[C@H]1C[C@H]2COc3cccc(c3)-c3ccccc3C(=O)NCC[C@@H](N)C(=O)N2C1 [Ex. 2, tert-butyl N-[(12R,16S,18S)-12-amino-8,13-dioxo-20-oxa-9,14-diazatetracyclo[19.3.1.0^2,7.0^14,18]pentacosa-1(25),2,4,6,21,23-hexaen-16-yl]carbamate]

MIC [1, 8]: > 16 µg/mL
MIC [2, 9]: 4 µg/mL (≈ 8.07 µM)
MIC [2, 10]: 2 to 4 µg/mL (≈ 4.04 to 8.07 µM)
MIC [2, 11]: 2 µg/mL (≈ 4.04 µM)
MIC ([2]; strain DSM 46320, read-out: MIC S. aureus DSM 46320): 4 µg/mL (≈ 8.07 µM)
MIC [2, 12]: 8 µg/mL (≈ 16.1 µM)
SMILES: CC(C)(C)OC(=O)N[C@@H]1C[C@H]2COc3cccc(c3)-c3cncc(c3)C(=O)NCCNCC(=O)N2C1 [Ex. 91, tert-butyl N-[(9S,11R)-14,20-dioxo-7-oxa-13,16,19,23-tetraazatetracyclo[19.3.1.1^2,6.0^9,13]hexacosa-1(25),2(26),3,5,21,23-hexaen-11-yl]carbamate]

inhibition at 10 µM ([3]; 10 μM compound): 50%
SMILES: CCCC(=O)N[C@H]1CCCN(C)C(=O)c2cccc(c2)-c2ccccc2OC[C@@H]2C[C@H](NC(=O)Cc3ccc4ccccc4c3)CN2C1=O [Ex. 27, N-[(10S,12S,16S)-20-methyl-12-{[2-(2-naphthyl)acetyl]amino)-15,21-dioxo-8-oxa-14,20-diazatetracyclo[20.3.1.0^2,7.0^10,14]hexacosa-1(26),2,4,6,22,24-hexaen-16-yl]butanamide]

IC50 [3]: 14.7 µM
inhibition at 10 µM ([3]; 10 μM compound): 45%
SMILES: CN(C)CC(=O)N[C@H]1CCCN(C)C(=O)c2cccc(c2)-c2ccccc2OC[C@@H]2C[C@H](NC(=O)Cc3ccc4ccccc4c3)CN2C1=O [Ex. 20, 2-(dimethylamino)-N-[(10S,12S,16S)-20-methyl-12-{[2-(2-naphthyl)acetyl]amino}-15,21-dioxo-8-oxa-14,20-diazatetracyclo[20.3.1.0^2,7.0^10,14]hexacosa-1(26),2,4,6,22,24-hexaen-16-yl]acetamide]

MIC [1, 13]: 8 µg/mL (≈ 13 µM)
MIC [1, 14]: 2 µg/mL (≈ 3.25 µM)
MIC [1, 15]: 8 µg/mL (≈ 13 µM)
MIC [1, 16]: 8 µg/mL (≈ 13 µM)
MIC [1, 17]: 8 µg/mL (≈ 13 µM)
SMILES: N[C@H]1C[C@H]2COc3cc(F)cc(c3)-c3csc(c3)C(=O)N[C@H](C(=O)Nc3ccc(Cl)cc3)COCCCCC(=O)N2C1 [Ex. 257, (8S,18S,20S)-18-amino-N-(4-chlorophenyl)-25-fluoro-6,15-dioxo-10,22-dioxa-4-thia-7,16-diazatetracyclo[21.3.1.1^2,5.0^16,20]octacosa-1(27),2,5(28),23,25-pentaene-8-carboxamide]

MIC [1, 13]: 16 µg/mL (≈ 26.9 µM)
MIC [1, 14]: 4 µg/mL (≈ 6.73 µM)
MIC [1, 15]: 8 µg/mL (≈ 13.5 µM)
MIC [1, 16]: 8 µg/mL (≈ 13.5 µM)
MIC [1, 17]: 8 µg/mL (≈ 13.5 µM)
SMILES: Cc1cccc(NC(=O)[C@@H]2COCCCCC(=O)N3C[C@@H](N)C[C@H]3COc3cc(F)cc(c3)-c3csc(c3)C(=O)N2)c1 [Ex. 259, (8S,18S,20S)-18-amino-25-fluoro-N-(3-methylphenyl)-6,15-dioxo-10,22-dioxa-4-thia-7,16-diazatetracyclo[21.3.1.1^2,5.0^16,20]octacosa-1(27),2,5(28),23,25-pentaene-8-carboxamide]

MIC [1, 13]: 16 µg/mL (≈ 27.6 µM)
MIC [1, 14]: 8 µg/mL (≈ 13.8 µM)
MIC [1, 15]: 16 µg/mL (≈ 27.6 µM)
MIC [1, 16]: 16 µg/mL (≈ 27.6 µM)
MIC [1, 17]: 16 µg/mL (≈ 27.6 µM)
SMILES: N[C@H]1C[C@H]2COc3cc(F)cc(c3)-c3csc(c3)C(=O)N[C@H](C(=O)Nc3ccccc3)COCCCCC(=O)N2C1 [Ex. 247, (8S,18S,20S)-18-amino-25-fluoro-6,15-dioxo-N-phenyl-10,22-dioxa-4-thia-7,16-diazatetracyclo[21.3.1.1^2,5.0^16,20]octacosa-1(27),2,5(28),23,25-pentaene-8-carboxamide]

% Inhibition at 10 μM ([3]; 10 μM compound): 55%
SMILES: CC(C)CC(=O)N[C@H]1CCCN(C)C(=O)c2cccc(c2)-c2ccccc2OC[C@@H]2C[C@H](NC(=O)Cc3ccc4ccccc4c3)CN2C1=O [Ex. 24, 3-methyl-N-[(10S,12S,16S)-20-methyl-12-{[2-(2-naphthyl)acetyl]amino}-15,21-dioxo-8-14,20-diazatetracyclo[20.3.1.0^2,7.0^10,14]hexacosa-1(26),2,4,6,22,24-hexaen-16-yl]butanamide]

inhibition at 10 µM ([3]; 10 μM compound): 57%
SMILES: CCCCC(=O)N[C@H]1CCCN(C)C(=O)c2cccc(c2)-c2ccccc2OC[C@@H]2C[C@H](NC(=O)Cc3ccc4ccccc4c3)CN2C1=O [Ex. 28, N-[(10S,12S,16S)-20-methyl-12-{[2-(2-naphthyl)acetyl]amino}-15,21-dioxo-8-oxa-14,20-diazatetracyclo[20.3.1.0^2,7.0^10,14]hexacosa-1(26),2,4,6,22,24-hexaen-16-yl]pentanamide]

half-life at 10 μM [4]: > 60 min
Metabolic Stability 60 min hum [% remain.] [4]: 100 % remain.
Plasma Stability 240 min mouse/(rat) [% remain.] [5]: 100 % remain.
half-life at 10 μM [5]: > 4 h
Plasma Stability 240 min hum [% remain.] [6]: 88 % remain.
half-life at 10 μM [6]: > 4 h
Metabolic Stability 60 min mouse/(rat) [% remain.] [7]: 97 % remain.
half-life at 10 μM [7]: > 60 min
SMILES: C[C@H]1COc2cccc(c2)-c2cccc(c2)C(=O)N(C)[C@H](C(=O)NCCO)CCC(=O)N1 [Ex. 81, (9S,14S)-N-(2-hydroxyethyl)-9,15-dimethyl-11,16-dioxo-7-oxa-10,15-diazatricyclo[15.3.1.1^2,6]docosa-1(21),2(22),3,5,17,19-hexaene-14-carboxamide]

inhibition at 10 µM ([3]; 10 μM compound): 75%
SMILES: CN1CCC[C@H](NS(=O)(=O)C2CC2)C(=O)N2C[C@@H](NC(=O)Cc3ccc4ccccc4c3)C[C@H]2COc2ccccc2-c2cccc(c2)C1=O [Ex. 21, N-[(10S,12S,16S)-16-[(cyclopropylsulfonyl)amino]-20-methyl-15,21-dioxo-8-oxa-14,20-diazatetracyclo[20.3.1.0^2,7.0^10,14]hexacosa-1(26),2,4,6,22,24-hexaen-12-yl]-2-(2-naphthyl)acetamide]

half-life at 10 μM [4]: 32 min
Metabolic Stability 60 min hum [% remain.] [4]: 26 % remain.
Plasma Stability 240 min mouse/(rat) [% remain.] [5]: 78 % remain.
half-life at 10 μM [5]: > 4 h
Plasma Stability 240 min hum [% remain.] [6]: 100 % remain.
half-life at 10 μM [6]: > 4 h
Metabolic Stability 60 min mouse/(rat) [% remain.] [7]: 71 % remain.
half-life at 10 μM [7]: > 60 min
SMILES: COc1ccc2c(c1)-c1cccc(c1)C(=O)N(C)[C@H](C(=O)N1CCCC1)CCC(=O)N[C@H](C)CO2 [Ex. 46, (10R,15S)-4-methoxy-10,16-dimethyl-15-(1-pyrrolidinylcarbonyl)-8-oxa-11,16-diazatricyclo[16.3.1.0^2,7]docosa-1(22),2,4,6,18,20-hexaene-12,17-dione]
